Paper PMC4893628, “Chalcone-based Selective Inhibitors of a C4 Plant Key Enzyme as Novel Potential Herbicides” (Scientific Reports, 2016)
Read-outs that look alike come from different tables or passages of the source.

Experiments:
[1] = target: C4 PEPC mutant G884R (Flaveria trinervia, UniProt P30694, G884R); assay: Isothermal titration calorimetry, mutant G884R; type: binding
Procedure: The binding affinities between small molecule compounds and PEPC enzymes were measured using a MicroCal iTC200 calorimeter (GE Healthcare). 18 injections (2 μl each) of 200 μM compound were injected into a sample cell containing 20 uM PEPC at 25 °C. The buffer of the compounds and the enzymes contained 50 mM Tris/HCl pH 7.5, 150 mM NaCl, 10 mM MgCl2. The data were analyzed with one-site-binding fitting using Origin software (MicroCal Inc.) to calculate the dissociation constant (Kd) of the small molecule inhibitors.

[2] = test system: Corynebacterium glutamicum ATCC13032; assay: Bacterial growth in microscale cultivation, C. glutamicum; type: cell-based; settings: relative to control; for activity at 0.4 µM / activity at 4 µM / activity at 40 µM / activity at 0.3 µM / activity at 3 µM / activity at 30 µM / activity at 0.1 µM / activity at 1 µM / activity at 10 µM: Corynebacterium glutamicum
Procedure: The following bacteria were cultivated in the presence of trans-chalcone derived inhibitors: Corynebacterium glutamicum ATCC13032[43], Escherichia coli K-12 MG1655[44], Pseudomonas putida KT2440[45], and Bacillus subtilis 168[46]. The growth of these bacteria was monitored in flower-well plates shaken at 1200 rpm as backscatter at 620 nm (gain 20) using a BioLector® microscale cultivation system (m2p labs, Baesweiler, Germany). For further experimental details please refer to the Supplementary Information.
medium or the appropriate minimal medium and shaken at 140 rpm overnight. For inoculation of
the main culture, cells equivalent to an optical density at 600 nm of 0.5 (C. glutamicum, E. coli,
and P. putida) or 0.25 (B. subtilis) in 800 µL medium were washed and resuspended in fresh
media. Inhibitor substances were dissolved in DMSO and added to the media to a final
Since the least polar trans-chalcone and 2’-hydroxychalcone precipitated in the growth media at
the highest concentrations, the maximal concentration of these compounds was reduced to 400
µM and 100 µM, respectively. The final backscatter at 620 nm, the growth rate (h-1), and the
duration of the lag phase of all cultures were determined in a BioLector microscale cultivation
system in comparison to negative controls supplemented with the solvent DMSO. A longer lag

[3] = target: T1, F. pringlei PEPC (Flaveria pringlei, UniProt Q01647); assay: PEPC coupled spectrophotometric assay, C3 PEPC; type: biochemical
T1 construct: the full-length ppcA gene of PEPC from F. trinervia (EMBL-Bank X61304) and F. pringlei (EMBL-Bank Z48966) were cloned in pETEV16b; made in house; host or cells: Escherichia coli BL21-Gold(DE3)
T1 sequence (Q01647 1-967): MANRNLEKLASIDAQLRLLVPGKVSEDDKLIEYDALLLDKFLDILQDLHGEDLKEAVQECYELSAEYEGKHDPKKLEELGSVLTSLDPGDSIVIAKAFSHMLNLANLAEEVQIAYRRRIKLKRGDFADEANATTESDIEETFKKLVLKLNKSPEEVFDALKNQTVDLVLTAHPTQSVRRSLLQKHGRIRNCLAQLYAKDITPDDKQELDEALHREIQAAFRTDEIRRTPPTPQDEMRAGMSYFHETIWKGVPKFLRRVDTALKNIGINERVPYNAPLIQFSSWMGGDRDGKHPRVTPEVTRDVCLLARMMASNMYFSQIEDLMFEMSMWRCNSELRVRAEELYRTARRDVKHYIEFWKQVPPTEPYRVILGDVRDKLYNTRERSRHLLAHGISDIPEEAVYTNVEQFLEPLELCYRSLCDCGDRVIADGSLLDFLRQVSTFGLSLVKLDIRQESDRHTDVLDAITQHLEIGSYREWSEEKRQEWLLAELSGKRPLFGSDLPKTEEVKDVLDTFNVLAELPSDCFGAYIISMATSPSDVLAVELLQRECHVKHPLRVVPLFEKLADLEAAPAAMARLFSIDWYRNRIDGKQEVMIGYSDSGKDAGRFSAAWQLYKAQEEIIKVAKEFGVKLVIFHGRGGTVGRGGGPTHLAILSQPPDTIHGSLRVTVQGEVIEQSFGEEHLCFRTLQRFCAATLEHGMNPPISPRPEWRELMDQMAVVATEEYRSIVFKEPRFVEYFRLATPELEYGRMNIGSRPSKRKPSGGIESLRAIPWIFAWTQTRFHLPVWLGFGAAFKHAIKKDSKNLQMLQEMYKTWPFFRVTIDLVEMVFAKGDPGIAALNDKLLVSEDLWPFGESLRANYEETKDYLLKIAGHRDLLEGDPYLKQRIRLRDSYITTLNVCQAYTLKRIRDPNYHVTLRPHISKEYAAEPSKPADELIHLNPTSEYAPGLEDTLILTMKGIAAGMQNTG
Procedure: The IC50 values of small molecule compounds on F. pringlei and F. trinervia PEPCs were determined using PEPC coupled spectrophotometric assay. The amount of NADH oxidized by NADH-malate dehydrogenase was measured by the decrease in absorbance at 340 nm in a Beckman DU-800 spectrophotometer, thus the value is in proportion to the corresponding substrate conversion of the enzyme. The reaction mixture included the PEPC enzymes (0.05 U), NADH (150 μM), malate dehydrogenase (2 U) and different concentration of compounds in the buffer containing 50 mM HEPES/KOH pH 7.5, 10 mM MgCl2, 10 mM KHCO3 in a final volume of 600 μl at 25 °C. The reactions were started by adding two folds of the Km value of PEP for each enzyme. The data were analyzed using GraFit (Erithacus Software, UK).

[4] = ATCC13032, complex medium, 0.3 µM, read-out: Final Backscatter
[5] = ATCC13032, complex medium, 0.3 µM, read-out: Growth rate
[6] = ATCC13032, complex medium, 3 µM, read-out: Final Backscatter
[7] = ATCC13032, complex medium, 3 µM, read-out: Growth rate
[8] = ATCC13032, complex medium, 30 µM, read-out: Final Backscatter
[9] = ATCC13032, complex medium, 30 µM, read-out: Growth rate
[10] = ATCC13032, minimal medium, 0.3 µM, read-out: Final Backscatter
[11] = ATCC13032, minimal medium, 0.3 µM, read-out: Growth rate
[12] = ATCC13032, minimal medium, 3 µM, read-out: Final Backscatter
[13] = ATCC13032, minimal medium, 3 µM, read-out: Growth rate
[14] = ATCC13032, minimal medium, 30 µM, read-out: Final Backscatter
[15] = ATCC13032, minimal medium, 30 µM, read-out: Growth rate

Chain of C4 PEPC mutant G884R (P30694 whole entry G884R): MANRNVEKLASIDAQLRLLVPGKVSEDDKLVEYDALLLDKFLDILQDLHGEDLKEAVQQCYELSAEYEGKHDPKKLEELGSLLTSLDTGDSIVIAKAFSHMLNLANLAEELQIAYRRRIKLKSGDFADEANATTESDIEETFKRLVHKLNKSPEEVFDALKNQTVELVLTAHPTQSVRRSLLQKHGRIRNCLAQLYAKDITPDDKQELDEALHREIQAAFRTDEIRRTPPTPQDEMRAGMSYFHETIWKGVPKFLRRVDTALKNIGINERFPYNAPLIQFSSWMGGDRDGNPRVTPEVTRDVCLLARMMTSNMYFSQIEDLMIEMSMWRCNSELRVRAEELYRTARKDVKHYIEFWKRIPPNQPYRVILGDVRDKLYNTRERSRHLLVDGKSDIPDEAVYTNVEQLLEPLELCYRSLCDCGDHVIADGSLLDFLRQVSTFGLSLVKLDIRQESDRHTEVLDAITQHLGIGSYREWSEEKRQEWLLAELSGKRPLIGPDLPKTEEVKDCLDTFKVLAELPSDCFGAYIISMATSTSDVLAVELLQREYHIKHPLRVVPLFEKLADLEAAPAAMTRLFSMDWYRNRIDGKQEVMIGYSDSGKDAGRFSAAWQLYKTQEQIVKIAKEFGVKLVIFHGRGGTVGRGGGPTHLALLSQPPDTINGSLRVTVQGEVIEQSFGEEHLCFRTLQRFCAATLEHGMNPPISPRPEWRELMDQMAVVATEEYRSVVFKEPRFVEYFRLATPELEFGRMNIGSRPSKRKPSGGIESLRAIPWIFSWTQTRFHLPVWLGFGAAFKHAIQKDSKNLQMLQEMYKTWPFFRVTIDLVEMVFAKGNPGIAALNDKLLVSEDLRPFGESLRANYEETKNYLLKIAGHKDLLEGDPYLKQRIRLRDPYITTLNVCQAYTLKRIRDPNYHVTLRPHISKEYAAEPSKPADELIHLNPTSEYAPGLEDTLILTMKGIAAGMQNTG

O=C(/C=C/c1ccc(O)c(O)c1)c1ccc(O)cc1O [Compound 8, 2′,4′,3,4-Tetrahydroxy-chalcone]
Kd [1]: 8.6 µM
activity at 0.4 µM ([2]; ATCC13032, complex medium, 0.4 µM, read-out: Final Backscatter): 96.6%
activity at 0.4 µM ([2]; ATCC13032, complex medium, 0.4 µM, read-out: Growth rate): 114%
activity at 4 µM ([2]; ATCC13032, complex medium, 4 µM, read-out: Final Backscatter): 107%
activity at 4 µM ([2]; ATCC13032, complex medium, 4 µM, read-out: Growth rate): 134%
activity at 40 µM ([2]; ATCC13032, complex medium, 40 µM, read-out: Final Backscatter): 108%
activity at 40 µM ([2]; ATCC13032, complex medium, 40 µM, read-out: Growth rate): 129%
activity at 0.4 µM ([2]; ATCC13032, minimal medium, 0.4 µM, read-out: Final Backscatter): 99%
activity at 0.4 µM ([2]; ATCC13032, minimal medium, 0.4 µM, read-out: Growth rate): 103%
activity at 4 µM ([2]; ATCC13032, minimal medium, 4 µM, read-out: Final Backscatter): 101%
activity at 4 µM ([2]; ATCC13032, minimal medium, 4 µM, read-out: Growth rate): 96.6%
activity at 40 µM ([2]; ATCC13032, minimal medium, 40 µM, read-out: Final Backscatter): 103%
activity at 40 µM ([2]; ATCC13032, minimal medium, 40 µM, read-out: Growth rate): 102%
Lag Phase ([2]; complex medium, 0.4 µM): 109,9%
Lag Phase ([2]; complex medium, 4 µM): 95,4%
Lag Phase ([2]; complex medium, 40 µM): 84,9%
Lag Phase ([2]; minimal medium, 0.4 µM): 99,3%
Lag Phase ([2]; minimal medium, 4 µM): 98,6%
Lag Phase ([2]; minimal medium, 40 µM): 100,7%

O=C(/C=C/c1cc(O)c(O)c(O)c1)c1ccc(O)cc1O [Compound 9, 2′,4′,3,4,5-Pentahydroxychalcone]
Kd [1]: 4.8 µM
activity at 0.3 µM [2, 4]: 99.6%
activity at 0.3 µM [2, 5]: 104%
activity at 3 µM [2, 6]: 102%
activity at 3 µM [2, 7]: 111%
activity at 30 µM [2, 8]: 96.7%
activity at 30 µM [2, 9]: 112%
activity at 0.3 µM [2, 10]: 99.9%
activity at 0.3 µM [2, 11]: 104%
activity at 3 µM [2, 12]: 96.9%
activity at 3 µM [2, 13]: 103%
activity at 30 µM [2, 14]: 97.7%
activity at 30 µM [2, 15]: 97.3%
Lag Phase ([2]; complex medium, 0.3 µM): 98,5%
Lag Phase ([2]; complex medium, 3 µM): 98,0%
Lag Phase ([2]; complex medium, 30 µM): 94,5%
Lag Phase ([2]; minimal medium, 0.3 µM): 98,6%
Lag Phase ([2]; minimal medium, 3 µM): 98,6%
Lag Phase ([2]; minimal medium, 30 µM): 98,6%

O=C(/C=C/c1ccc(O)c(O)c1)c1c(O)cc(O)cc1O [Compound 11, 2′,4′,6′,3,4-Pentahydroxy-chalcone]
IC50 ([3]; read-out: IC50 F. pringlei PEPC): 8.2 ± 0.3 µM
activity at 0.3 µM [2, 4]: 99.6%
activity at 0.3 µM [2, 5]: 94.6%
activity at 3 µM [2, 6]: 103%
activity at 3 µM [2, 7]: 104%
activity at 30 µM [2, 8]: 103%
activity at 30 µM [2, 9]: 95.3%
activity at 0.3 µM [2, 10]: 100%
activity at 0.3 µM [2, 11]: 104%
activity at 3 µM [2, 12]: 95.1%
activity at 3 µM [2, 13]: 105%
activity at 30 µM [2, 14]: 96.2%
activity at 30 µM [2, 15]: 104%
Lag Phase ([2]; complex medium, 0.3 µM): 97,0%
Lag Phase ([2]; complex medium, 3 µM): 97,0%
Lag Phase ([2]; complex medium, 30 µM): 98,5%
Lag Phase ([2]; minimal medium, 0.3 µM): 99,3%
Lag Phase ([2]; minimal medium, 3 µM): 98,5%
Lag Phase ([2]; minimal medium, 30 µM): 98,5%

O=C(/C=C/c1ccc(O)c(O)c1)c1ccc(O)c(O)c1O [Compound 12, 2′,3′,4′,3,4-Pentahydroxy-chalcone]
IC50 ([3]; IC50 F. pringlei PEPC): 26.8 ± 3.5 µM
Kd [1]: 5.4 µM
activity at 0.1 µM ([2]; ATCC13032, complex medium, 0.1 µM, read-out: Final Backscatter): 97%
activity at 0.1 µM ([2]; ATCC13032, complex medium, 0.1 µM, read-out: Growth rate): 108%
activity at 1 µM ([2]; ATCC13032, complex medium, 1 µM, read-out: Final Backscatter): 93.8%
activity at 1 µM ([2]; ATCC13032, complex medium, 1 µM, read-out: Growth rate): 132%
activity at 10 µM ([2]; ATCC13032, complex medium, 10 µM, read-out: Final Backscatter): 89.6%
activity at 10 µM ([2]; ATCC13032, complex medium, 10 µM, read-out: Growth rate): 144%
activity at 0.1 µM ([2]; ATCC13032, minimal medium, 0.1 µM, read-out: Final Backscatter): 99.6%
activity at 0.1 µM ([2]; ATCC13032, minimal medium, 0.1 µM, read-out: Growth rate): 102%
activity at 1 µM ([2]; ATCC13032, minimal medium, 1 µM, read-out: Final Backscatter): 97.6%
activity at 1 µM ([2]; ATCC13032, minimal medium, 1 µM, read-out: Growth rate): 102%
activity at 10 µM ([2]; ATCC13032, minimal medium, 10 µM, read-out: Final Backscatter): 96.7%
activity at 10 µM ([2]; ATCC13032, minimal medium, 10 µM, read-out: Growth rate): 97.9%
Lag Phase ([2]; complex medium, 0.1 µM): 96,4%
Lag Phase ([2]; complex medium, 1 µM): 84,1%
Lag Phase ([2]; complex medium, 10 µM): 99,3%
Lag Phase ([2]; minimal medium, 0.1 µM): 99,3%
Lag Phase ([2]; minimal medium, 1 µM): 99,3%
Lag Phase ([2]; minimal medium, 10 µM): 100,7%
